According to patent publication US20240261224A1, “FORMULATION OF A PAN-JAK INHIBITOR” (KINASET THERAPEUTICS, INC., priority 2022, published 2024):
Where two headings read alike, the source gives them in different places.

Legend:
[1] = 13-week inhalation toxicology study, NHP model; assay type: in vivo; conditions: in vivo, inhaled or intranasal, NHP; for AUC(0-t): monkey, read-out: AUC0-24
Procedure: (§1) Lactose/MgSt-based formulations of Compound I were evaluated during a 13-week inhalation toxicology study in an NHP model, and the corresponding results are presented in Table 16 below. […] The NOAEL was assigned to the highest dose study (7.9 mg/kg/day).

NHP = assay: 13-week inhalation toxicology study, NHP model; assay type: in vivo
Procedure: as §1

## Cn1c(=O)n([C@H]2CCCN(C(=O)CC#N)C2)c2nc(-c3cnn4ccccc34)ccc21 [Compound I, (S)-3-(3-(1-methyl-2-oxo-5-(pyrazolo[1,5-a]pyridine-3-yl)-1H-imidazo[4,5-b]pyridine-3(2H)-yl)piperidin-1-yl)-3-oxopropanenitrile]
[1]; 0.9 mg/kg/day, inhaled 0.9 mg/kg/day, Day 1
  AUC(0-t): 203 ng·h/mL
[1]; 0.9 mg/kg/day, inhaled 0.9 mg/kg/day, Week 13
  AUC(0-t): 167 ng·h/mL
[1]; 2.7 mg/kg/day, inhaled 2.7 mg/kg/day, Day 1
  AUC(0-t): 408 ng·h/mL
[1]; 2.7 mg/kg/day, inhaled 2.7 mg/kg/day, Week 13
  AUC(0-t): 361 ng·h/mL
[1]; 8 mg/kg/day, inhaled 8.0 mg/kg/day, Day 1
  AUC(0-t): 903 ng·h/mL
[1]; 8 mg/kg/day, inhaled 8.0 mg/kg/day, Week 13
  AUC(0-t): 1160 ng·h/mL
[1]; non-human primate (NHP), 13-week inhalation, highest dose
  NOAEL at 13 weeks: 7.9 mg/kg/day
NHP; NHP, 13-week inhalation
  Treatment-related effects on clinical signs, bodyweight, food consumption, ophthalmoscopy, blood chemistry, urinalysis or macroscopic pathology: No treatment-related effects
NHP; target delivered dose 0.9 mg/kg/day (low dose)
  MMAD: 1.9 μm
NHP; target delivered dose 2.7 mg/kg/day (mid dose)
  MMAD: 2.3 μm
NHP; target delivered dose 8.0 mg/kg/day (high dose)
  MMAD: 2.7 μm
